US12559529B2, “NPY2 receptor agonists” (Boehringer Ingelheim International GmbH, priority 2019, dated 2026)
*1 amine or outer side, *2 acyl side, *3 side chain or, on linkers, in order; H or OH if unused. Where a SMILES comes first, the peptide text is derived from it. Side-chain parts run from the residue outwards. The star is where a group is joined. C18 diacid = O=C(O)CCCCCCCCCCCCCCCCC(=O)*; γGlu = O=C(O)[C@H](CCC(=O)[*:2])N[*:1]; Isovaleryl = CC(C)CC(=O)*; AEEA = NCCOCCOCC(=O)O

Columns and labels:
[1] = biological target: T1, Human Neuropeptide Y2 Receptor (Homo sapiens, UniProt P49146); test: Radioligand binding competition assay (RLB); conditions: Table 3; human 125I-PYY (1-36) 0.02 nM, Y2 receptor membranes; read-out: Ki
T1 construct: purchased CHEMICON HTS066M
T1 sequence (P49146 1-381): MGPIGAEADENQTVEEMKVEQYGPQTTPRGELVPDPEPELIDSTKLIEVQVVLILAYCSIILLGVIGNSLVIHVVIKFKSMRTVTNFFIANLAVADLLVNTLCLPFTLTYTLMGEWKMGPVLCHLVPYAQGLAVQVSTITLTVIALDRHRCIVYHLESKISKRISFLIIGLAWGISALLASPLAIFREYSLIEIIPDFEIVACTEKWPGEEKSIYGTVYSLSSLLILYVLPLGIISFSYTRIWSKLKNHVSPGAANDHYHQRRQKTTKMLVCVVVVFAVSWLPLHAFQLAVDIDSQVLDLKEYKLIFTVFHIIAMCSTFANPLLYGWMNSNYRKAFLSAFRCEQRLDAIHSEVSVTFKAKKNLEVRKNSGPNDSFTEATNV
How it was run: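 Peptide dilutions made in pH 7.4 HEPES assay buffer with 0.2% ovalbumin; human Y2 receptor membranes added at 0.5 μg protein/well; plates shaken 2 h at room temperature; reaction stopped by vacuum filtration onto PEI-treated GF/C filters with ice-cold high-salt washes; radioactivity counted by scintillation.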

normal NMRI mice = test: Effect on acute food intake in normal NMRI mice; type: in vivo; conditions: male NMRI mice, 10 nmol/kg subcutaneously once
How it was run: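 Male NMRI mice acclimatized in an HM-2 real-time food intake monitoring system, fasted 6 h before dark phase. Single subcutaneous dose of 10 nmol/kg peptide given 1 h before dark; n=7-8. Food intake expressed as % of vehicle group (50 mM phosphate pH7, 5% Mannitol).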

Row | Structure (SMILES) | Ki [1] [nM] | Acute Food Intake 24 h [% vehicle] (normal NMRI mice)
1 | CC[C@H](C)[C@H](NC(=O)[C@H](CCC(=O)O)NC(=O)[C@H](CCC(=O)O)NC(=O)[C@@H]1CCCN1C(=O)[C@H](C)NC(=O)[C@H](C)NC(=O)[C@H](CC(=O)O)NC(=O)[C@H](CCC(=O)O)NC(=O)[C@H](CCC(=O)O)NC(=O)[C@@H]1CCCN1C(=O)[C@H](CCCCNC(=O)COCCOCCNC(=O)COCCOCCNC(=O)CC[C@H](NC(=O)CCCCCCCCCCCCCCCCC(=O)O)C(=O)O)NC(=O)[C@H](CCC(=O)O)NC(=O)[C@@H]1CCCN1C(=O)[C@H](C)NC(=O)CC(C)C)C(=O)N[C@@H](CCC(N)=O)C(=O)N[C@@H](CCCNC(=N)N)C(=O)N[C@@H](Cc1ccc(O)cc1)C(=O)N[C@@H](Cc1ccc(O)cc1)C(=O)N[C@H](C(=O)N[C@@H](CO)C(=O)N[C@@H](CC(C)C)C(=O)N[C@@H](CCCNC(=N)N)C(=O)N[C@@H](Cc1c[nH]cn1)C(=O)N[C@@H](Cc1ccc(O)cc1)C(=O)N[C@@H](Cc1ccc(O)cc1)C(=O)N[C@@H](CC(N)=O)C(=O)N[C@@H](Cc1c[nH]c2ccccc12)C(=O)N[C@@H](CC(C)C)C(=O)N[C@H](C(=O)N[C@@H](CCCNC(=N)N)C(=O)N[C@@H](CCC(N)=O)C(=O)N[C@@H](CCCNC(=N)N)C(=O)N[C@@H](Cc1ccc(O)cc1)C(N)=O)[C@@H](C)O)C(C)C [Compound 124, N{alpha-4}-(3-methylbutanoyl)-N{epsilon-7}-[2-(2-{2-[2-(2-{2-[(4S)-4-carboxy-4-(17-carboxyheptadecanamido)butanamido]ethoxy}ethoxy)acetamido]ethoxy}ethoxy)acetamido]-[4A,7K,9E,13A,17I,18Q,22V,28Y,30W,31L]hPYY (4-36)] | 0.5 | 58
2 | CC(C)CC(=O)N[C@@H](C)C(=O)N1CCC[C@H]1C(=O)N[C@@H](CCC(=O)O)C(=O)N[C@@H](CCCCNC(=O)COCCOCCNC(=O)COCCOCCNC(=O)CC[C@H](NC(=O)CCCCCCCCCCCCCCCCC(=O)O)C(=O)O)C(=O)N1CCC[C@H]1C(=O)N[C@@H](CCC(=O)O)C(=O)N[C@@H](CCC(=O)O)C(=O)N[C@@H](CC(=O)O)C(=O)N[C@@H](C)C(=O)N[C@@H](CO)C(=O)N1CCC[C@H]1C(=O)N[C@@H](CCC(=O)O)C(=O)N[C@@H](CCC(=O)O)C(=O)N[C@@H](CC(C)C)C(=O)N[C@@H](CCC(N)=O)C(=O)N[C@@H](CCCCN)C(=O)N[C@@H](Cc1ccc(O)cc1)C(=O)N[C@@H](Cc1ccc(O)cc1)C(=O)N[C@H](C(=O)N[C@H](C(=O)N[C@@H](CC(C)C)C(=O)N[C@@H](CCCNC(=N)N)C(=O)N[C@@H](Cc1c[nH]cn1)C(=O)N[C@@H](Cc1ccc(O)cc1)C(=O)N[C@@H](Cc1ccc(O)cc1)C(=O)N[C@@H](CC(N)=O)C(=O)N[C@@H](Cc1c[nH]c2ccccc12)C(=O)N[C@@H](CC(C)C)C(=O)N[C@H](C(=O)N[C@@H](CCCNC(=N)N)C(=O)N[C@@H](CCC(N)=O)C(=O)N[C@@H](CCCNC(=N)N)C(=O)N[C@@H](Cc1ccc(O)cc1)C(N)=O)[C@@H](C)O)[C@@H](C)O)C(C)C [Compound 132, N{alpha-4}-(3-methylbutanoyl)-N{epsilon-7}-[2-(2-{2-[2-(2-{2-[(4S)-4-carboxy-4-(17-carboxyheptadecanamido)butanamido]ethoxy}ethoxy)acetamido]ethoxy}ethoxy)acetamido]-[4A,7K,9E,18Q,19K,22V,23T,28Y,30W,31L]hPYY (4-36)] | 1.18 | 64
3 | CC(C)CC(=O)N[C@@H](C)C(=O)N1CCC[C@H]1C(=O)N[C@@H](CCC(=O)O)C(=O)N[C@@H](CCCCNC(=O)COCCOCCNC(=O)COCCOCCNC(=O)CC[C@H](NC(=O)CCCCCCCCCCCCCCCCC(=O)O)C(=O)O)C(=O)N1CCC[C@H]1C(=O)N[C@@H](CCC(=O)O)C(=O)N[C@@H](CCC(=O)O)C(=O)N[C@@H](CC(=O)O)C(=O)N[C@@H](C)C(=O)N[C@@H](CO)C(=O)N1CCC[C@H]1C(=O)N[C@@H](CCC(=O)O)C(=O)N[C@@H](CCC(=O)O)C(=O)N[C@H](C(=O)N[C@@H](CCC(N)=O)C(=O)N[C@@H](CCCNC(=N)N)C(=O)N[C@@H](Cc1ccc(O)cc1)C(=O)N[C@@H](Cc1ccc(O)cc1)C(=O)N[C@H](C(=O)N[C@@H](CCC(=O)O)C(=O)N[C@@H](CC(C)C)C(=O)N[C@@H](CCCNC(=N)N)C(=O)N[C@@H](Cc1c[nH]cn1)C(=O)N[C@@H](Cc1ccc(O)cc1)C(=O)N[C@@H](Cc1ccc(O)cc1)C(=O)N[C@@H](CC(N)=O)C(=O)N[C@@H](Cc1c[nH]c2ccccc12)C(=O)N[C@@H](CC(C)C)C(=O)N[C@H](C(=O)N[C@@H](CCCNC(=N)N)C(=O)N[C@@H](CCC(N)=O)C(=O)N[C@@H](CCCNC(=N)N)C(=O)N[C@@H](Cc1ccc(O)cc1)C(N)=O)[C@@H](C)O)C(C)C)C(C)C [Compound 133, N{alpha-4}-(3-methylbutanoyl)-N{epsilon-7}-[2-(2-{2-[2-(2-{2-[(4S)-4-carboxy-4-(17-carboxyheptadecanamido)butanamido]ethoxy}ethoxy)acetamido]ethoxy}ethoxy)acetamido]-[4A,7K,9E,17V,18Q,22V,23E,28Y,30W,31L]hPYY (4-36)] | 2.31 | 57
4 | CC(C)CC(=O)N[C@@H](C)C(=O)N1CCC[C@H]1C(=O)N[C@@H](CCC(=O)O)C(=O)N[C@@H](CCCCNC(=O)COCCOCCNC(=O)COCCOCCNC(=O)CC[C@H](NC(=O)CCCCCCCCCCCCCCCCC(=O)O)C(=O)O)C(=O)N1CCC[C@H]1C(=O)N[C@@H](CCC(=O)O)C(=O)N[C@@H](CCC(=O)O)C(=O)N[C@@H](CCC(=O)O)C(=O)N[C@@H](CO)C(=O)N[C@@H](CO)C(=O)N1CCC[C@H]1C(=O)N[C@@H](CCC(=O)O)C(=O)N[C@@H](CCC(=O)O)C(=O)N[C@@H](CC(C)C)C(=O)N[C@@H](CCC(N)=O)C(=O)N[C@@H](CCCNC(=N)N)C(=O)N[C@@H](Cc1ccc(O)cc1)C(=O)N[C@@H](Cc1ccc(O)cc1)C(=O)N[C@H](C(=O)N[C@@H](CO)C(=O)N[C@@H](CC(C)C)C(=O)N[C@@H](CCCNC(=N)N)C(=O)N[C@@H](Cc1c[nH]cn1)C(=O)N[C@@H](Cc1ccc(O)cc1)C(=O)N[C@@H](Cc1ccc(O)cc1)C(=O)N[C@@H](CC(N)=O)C(=O)N[C@@H](Cc1c[nH]c2ccccc12)C(=O)N[C@@H](CC(C)C)C(=O)N[C@H](C(=O)N[C@@H](CCCNC(=N)N)C(=O)N[C@@H](CCC(N)=O)C(=O)N[C@@H](CCCNC(=N)N)C(=O)N[C@@H](Cc1ccc(O)cc1)C(N)=O)[C@@H](C)O)C(C)C [Compound 139, N{alpha-4}-(3-methylbutanoyl)-N{epsilon-7}-[2-(2-{2-[2-(2-{2-[(4S)-4-carboxy-4-(17-carboxyheptadecanamido)butanamido]ethoxy}ethoxy)acetamido]ethoxy}ethoxy)acetamido]-[4A,7K,9E,11E,12S,18Q,22V,28Y,30W,31L]hPYY (4-36)] (Isovaleryl-APEK([AEEA-AEEA-γGlu-C18 diacid])PEEESSPEELQRYYVSLRHYYNWLTRQRY-NH2) | 3.83 | 74
5 | CC(C)CC(=O)N[C@@H](C)C(=O)N1CCC[C@H]1C(=O)N[C@@H](CCC(=O)O)C(=O)N[C@@H](CCCCNC(=O)COCCOCCNC(=O)COCCOCCNC(=O)CC[C@H](NC(=O)CCCCCCCCCCCCCCCCC(=O)O)C(=O)O)C(=O)N1CCC[C@H]1C(=O)N[C@@H](CCC(=O)O)C(=O)N[C@@H](CCC(=O)O)C(=O)N[C@@H](CC(=O)O)C(=O)N[C@@H](C)C(=O)N[C@@H](CCC(=O)O)C(=O)N1CCC[C@H]1C(=O)N[C@@H](CCC(=O)O)C(=O)N[C@@H](CCC(=O)O)C(=O)N[C@@H](CC(C)C)C(=O)N[C@@H](CCC(N)=O)C(=O)N[C@@H](CCCCN)C(=O)N[C@@H](Cc1ccc(O)cc1)C(=O)N[C@@H](Cc1ccc(O)cc1)C(=O)N[C@H](C(=O)N[C@@H](CO)C(=O)N[C@@H](CC(C)C)C(=O)N[C@@H](CCCNC(=N)N)C(=O)N[C@@H](Cc1c[nH]cn1)C(=O)N[C@@H](Cc1ccc(O)cc1)C(=O)N[C@@H](Cc1ccc(O)cc1)C(=O)N[C@@H](CC(N)=O)C(=O)N[C@@H](Cc1c[nH]c2ccccc12)C(=O)N[C@@H](CC(C)C)C(=O)N[C@H](C(=O)N[C@@H](CCCNC(=N)N)C(=O)N[C@@H](CCC(N)=O)C(=O)N[C@@H](CCCNC(=N)N)C(=O)N[C@@H](Cc1ccc(O)cc1)C(N)=O)[C@@H](C)O)C(C)C [Compound 150, N{alpha-4}-(3-methylbutanoyl)-N{epsilon-7}-[2-(2-{2-[2-(2-{2-[(4S)-4-carboxy-4-(17-carboxyheptadecanamido)butanamido]ethoxy}ethoxy)acetamido]ethoxy}ethoxy)acetamido]-[4A,7K,9E,13E,18Q,19K,22V,28Y,30W,31L]hPYY (4-36)] | 2.02 | 67
